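48-hour exposure; five concentrations; linearly interpolated endpoints. At the TGI there is no net growth.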
Legend:
Assay in all cases: NCI tumour cell line growth inhibition, 48 h
DU-145 prostate = system: DU-145 prostate
HCC-2998 colon = system: HCC-2998 colon
RPMI-8226 leukemia = system: RPMI-8226 leukemia
MDA-N = system: MDA-N
RXF 393 renal = system: RXF 393 renal
EKVX NSCLC = system: EKVX NSCLC
A498 renal = system: A498 renal
SNB-75 CNS = system: SNB-75 CNS
OVCAR-4 ovarian = system: OVCAR-4 ovarian
COLO 205 colon = system: COLO 205 colon
CAKI-1 renal = system: CAKI-1 renal
NCI-H460 lung = system: NCI-H460 lung
SK-MEL-2 melanoma = system: SK-MEL-2 melanoma
TK-10 renal = system: TK-10 renal
SNB-19 CNS = system: SNB-19 CNS
MDA-MB-435 = system: MDA-MB-435
SF-539 CNS = system: SF-539 CNS
SK-MEL-28 melanoma = system: SK-MEL-28 melanoma
UACC-62 melanoma = system: UACC-62 melanoma
MOLT-4 leukemia = system: MOLT-4 leukemia

Row | SMILES | TGI (DU-145 prostate) | TGI (HCC-2998 colon) | TGI (RPMI-8226 leukemia) | TGI (MDA-N) | TGI (RXF 393 renal) | TGI (EKVX NSCLC) | TGI (A498 renal) | TGI (SNB-75 CNS) | TGI (OVCAR-4 ovarian) | TGI (COLO 205 colon) | TGI (CAKI-1 renal) | TGI (NCI-H460 lung) | TGI (SK-MEL-2 melanoma) | TGI (TK-10 renal) | TGI (SNB-19 CNS) | TGI (MDA-MB-435) | TGI (SF-539 CNS) | TGI (SK-MEL-28 melanoma) | TGI (UACC-62 melanoma) | TGI (MOLT-4 leukemia)
1 | CCN(CC)C1C(=O)NC1C#Cc1ccccc1 (configuration not stated) | > 100 µM | > 100 µM | > 100 µM | > 100 µM | > 100 µM | > 100 µM | > 100 µM | > 100 µM | > 100 µM | > 100 µM | > 100 µM | > 100 µM | > 100 µM | > 100 µM | > 100 µM | > 100 µM | > 100 µM | > 100 µM | > 100 µM | –
2 | CCS(=O)(=O)CCn1c(=O)c2c(ncn2C)n(C)c1=O | > 100 µM | > 100 µM | > 100 µM | > 100 µM | > 100 µM | > 100 µM | > 100 µM | > 100 µM | > 100 µM | > 100 µM | > 100 µM | > 100 µM | > 100 µM | > 100 µM | > 100 µM | > 100 µM | > 100 µM | > 100 µM | > 100 µM | > 100 µM
3 | ON[C@H]1C[C@@H](n2cnc3c(NC4CC4)ncnc32)[C@H](O)[C@@H]1O | > 100 µM | > 100 µM | > 100 µM | > 100 µM | > 100 µM | > 100 µM | > 100 µM | > 100 µM | > 100 µM | > 100 µM | > 100 µM | > 100 µM | > 100 µM | > 100 µM | > 100 µM | > 100 µM | > 100 µM | > 100 µM | > 100 µM | > 100 µM
4 | CC1(c2ccc(Cl)s2)CC(c2ccc(Cl)s2)=C(C#N)C(=C(C#N)C#N)N1 (configuration not stated) | 30.6 µM | 34.5 µM | > 100 µM | 49.5 µM | 33.7 µM | 32.6 µM | 37.8 µM | 38.6 µM | 33.2 µM | 61.1 µM | 34.8 µM | 82.6 µM | 47.2 µM | 38.1 µM | 44.2 µM | 35.1 µM | 68.7 µM | 50.5 µM | 30.7 µM | > 100 µM
5 | O=C1c2c(ccc3c2CCC3)CC12Cc1ccccc1C2 | > 100 µM | 89 µM | 44.3 µM | 90.5 µM | 40.4 µM | > 100 µM | 96.2 µM | 91.1 µM | > 100 µM | 53.1 µM | 43.6 µM | 96.1 µM | 47.6 µM | > 100 µM | > 100 µM | > 100 µM | 74.8 µM | 80.4 µM | – | 30.1 µM
6 | O=c1[nH]c(=O)n(C2CC(O)C(CO)O2)c2nc3ccc4cc5ccccc5cc4c3nc12 (configuration not stated) | > 100 µM | > 100 µM | > 100 µM | > 100 µM | > 100 µM | > 100 µM | > 100 µM | > 100 µM | > 100 µM | > 100 µM | > 100 µM | – | > 100 µM | > 100 µM | > 100 µM | > 100 µM | > 100 µM | > 100 µM | > 100 µM | > 100 µM
7 | Cc1ccnc2[nH]c(-c3ccc(F)cc3)cc(=O)c12 | > 100 µM | > 100 µM | > 100 µM | > 53.9 µM | > 100 µM | > 100 µM | 97.9 µM | > 100 µM | > 100 µM | > 76.8 µM | > 100 µM | > 60.4 µM | > 100 µM | > 100 µM | > 100 µM | > 44.8 µM | > 100 µM | > 100 µM | > 100 µM | > 100 µM
8 | NC(=O)SCCC(N)C(=O)O (configuration not stated) | > 100 µM | > 100 µM | > 100 µM | > 100 µM | > 100 µM | > 100 µM | > 100 µM | > 100 µM | > 100 µM | > 100 µM | > 100 µM | > 100 µM | > 100 µM | > 100 µM | > 100 µM | > 100 µM | > 100 µM | > 100 µM | > 100 µM | > 100 µM
9 | CCOc1ccccc1-c1nc2c(s1)C(=O)c1ccccc1C2=O | 36.5 µM | 29.5 µM | 54.8 µM | 6.5 µM | 31.5 µM | 41.2 µM | 29.4 µM | 25.6 µM | 35 µM | 58.9 µM | 26.7 µM | 39.2 µM | 30 µM | 34.4 µM | 65.3 µM | 4.31 µM | 40.9 µM | 30.4 µM | 13.8 µM | > 100 µM
10 | CSc1nc2c(c(N3CCOCC3)n1)C(O)n1c(nc3ccccc31)S2 (configuration not stated) | > 100 µM | > 100 µM | > 100 µM | > 100 µM | > 100 µM | > 100 µM | > 100 µM | 81.9 µM | > 100 µM | – | > 100 µM | > 100 µM | > 100 µM | > 100 µM | > 100 µM | > 100 µM | 8.77 µM | – | > 100 µM | > 100 µM
11 | COc1ccc(C2=C(N)c3ncccc3C2=O)cc1 | > 100 µM | > 100 µM | > 100 µM | > 100 µM | > 100 µM | > 100 µM | > 100 µM | > 100 µM | > 100 µM | > 100 µM | > 100 µM | > 100 µM | > 100 µM | > 10 µM | > 100 µM | > 100 µM | > 100 µM | > 100 µM | > 100 µM | > 100 µM
12 | O=C(CCc1ccccc1)n1cccc1CO | > 100 µM | > 100 µM | > 100 µM | > 100 µM | > 100 µM | > 100 µM | > 100 µM | > 100 µM | > 100 µM | > 100 µM | > 100 µM | > 100 µM | > 100 µM | > 100 µM | > 100 µM | > 100 µM | > 100 µM | > 100 µM | > 100 µM | > 100 µM
13 | COc1cccc(Nc2nc(N)nc(N)c2N)c1 | > 100 µM | > 100 µM | 68.3 µM | 36.8 µM | > 100 µM | > 100 µM | > 100 µM | > 100 µM | > 100 µM | > 100 µM | 58.3 µM | 43.6 µM | > 100 µM | > 100 µM | > 100 µM | > 100 µM | > 100 µM | > 100 µM | > 100 µM | 34.5 µM
14 | O=C1OC(C2(O)OC(=O)c3ccccc32)c2ccccc21 (configuration not stated) | > 100 µM | > 100 µM | > 100 µM | > 100 µM | > 100 µM | > 100 µM | > 100 µM | > 100 µM | > 100 µM | > 100 µM | > 100 µM | > 100 µM | > 100 µM | > 100 µM | > 100 µM | > 100 µM | > 100 µM | > 100 µM | > 100 µM | > 100 µM
15 | CC(C)(C)OC(=O)NCCCC(=O)NC1(c2cc3ccccc3s2)CCCCC1 | > 100 µM | 48.5 µM | 29.6 µM | 34.2 µM | 44.1 µM | 35.9 µM | 51 µM | 27.7 µM | > 100 µM | 29 µM | 93.1 µM | 40.1 µM | – | 97.2 µM | > 100 µM | 33.1 µM | 30.7 µM | 31.3 µM | 24.3 µM | 34.4 µM
16 | CN1C(=O)C(O)CC1c1ccccc1C(F)(F)F (configuration not stated) | > 100 µM | > 100 µM | > 100 µM | > 100 µM | > 100 µM | > 100 µM | > 100 µM | > 100 µM | > 100 µM | > 100 µM | > 100 µM | > 100 µM | > 100 µM | – | > 100 µM | > 100 µM | > 100 µM | > 100 µM | > 100 µM | > 100 µM
17 | O=C1/C(=C/c2ccc(Oc3ccccc3)cc2)N=C(c2ccccc2)N1c1ccc(S(=O)(=O)Nc2nccs2)cc1 | > 100 µM | 6.87 µM | 32.3 µM | 15.8 µM | 93.4 µM | > 100 µM | 82 µM | 58.1 µM | > 100 µM | 22.2 µM | > 100 µM | > 100 µM | 16.1 µM | > 100 µM | > 100 µM | 6.86 µM | > 100 µM | > 100 µM | > 100 µM | 71.2 µM
18 | CCCCCCCCCCCCCCCCOP(=O)(O)OCC(NC(C)=O)C(=O)O (configuration not stated) | > 100 µM | > 100 µM | > 100 µM | > 100 µM | 48.3 µM | > 100 µM | > 100 µM | 98.2 µM | 60.7 µM | > 100 µM | > 100 µM | > 100 µM | > 100 µM | 62.6 µM | 35.6 µM | > 100 µM | > 100 µM | > 100 µM | – | 51.8 µM
19 | CCCCCCCCCCCCCCCCCCNc1nc(=O)n(C2CC(O)C(COP(=O)(O)OCC3OC(n4ccc(N)nc4=O)C(O)C3O)O2)cc1F (configuration not stated) | > 100 µM | > 100 µM | > 100 µM | > 100 µM | > 100 µM | > 100 µM | > 100 µM | > 100 µM | > 100 µM | > 100 µM | > 100 µM | > 100 µM | > 100 µM | > 100 µM | > 100 µM | > 100 µM | > 100 µM | > 100 µM | > 100 µM | > 100 µM

— PubChem BioAssay (NCI)
